Reference: PubChem BioAssay AID248 (DTP/NCI, 2004)
Toxic doses and inconclusive results are not listed. No stated cut-off is given here; in the data, active means T/C of 150% or more; inactive means T/C below 125%.

System: L1210 leukemia ip in BDF1 mice, survival T/C
Test: NCI In Vivo Anticancer Drug Screen. Data for tumor model L1210 Leukemia (intraperitoneal) in B6D2F1 (BDF1) mice
Details: endpoint: mean survival time, higher = longer survival
Procedure, shortened: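 Value reflects the ratio of survival in compound-treated mice to survival in vehicle-treated controls, with both groups carrying the same transplanted tumor.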

[1] = dose: 100.0 mg/kg/injection, schedule: Q01DX001 (ip), vehicle: saline
[2] = dose: 200.0 mg/kg/injection, schedule: Q01DX001 (ip), vehicle: saline
[3] = dose: 400.0 mg/kg/injection, schedule: Q01DX001 (ip), vehicle: saline

Measured: T/C

[O-][N+]1(c2ccc(Cl)cc2)CC[N+]([O-])(c2ccc(Cl)cc2)CC1 (stereo unspecified)
inactive: dose: 100.0 mg/kg/injection, schedule: Q04DX003 (ip), vehicle: Klucel (hydroxypropylcellulose) (HPC) 96 % of control | dose: 200.0 mg/kg/injection, schedule: Q04DX003 (ip), vehicle: Klucel (hydroxypropylcellulose) (HPC) 94 % of control | dose: 400.0 mg/kg/injection, schedule: Q04DX003 (ip), vehicle: Klucel (hydroxypropylcellulose) (HPC) 100 % of control

CN(C)CCCCc1cn(-c2ccccc2)c2ccccc12
inactive: dose: 12.5 mg/kg/injection, schedule: Q01DX009 (ip), vehicle: saline 100 % of control | dose: 25.0 mg/kg/injection, schedule: Q01DX009 (ip), vehicle: saline 93 % of control | dose: 25.0 mg/kg/injection, schedule: Q04DX003 (ip), vehicle: saline 102 % of control | dose: 30.0 mg/kg/injection, schedule: Q01DX015 (ip), vehicle: saline 86 % of control | dose: 50.0 mg/kg/injection, schedule: Q01DX009 (ip), vehicle: saline 107 % of control | dose: 50.0 mg/kg/injection, schedule: Q04DX003 (ip), vehicle: saline 103 % of control

CCCCCCCOC(=O)COc1ccc(Cl)cc1Cl
inactive: dose: 100.0 mg/kg/injection, schedule: Q04DX002 (ip), vehicle: Klucel (hydroxypropylcellulose) (HPC) 90 % of control | dose: 200.0 mg/kg/injection, schedule: Q04DX002 (ip), vehicle: Klucel (hydroxypropylcellulose) (HPC) 87 % of control | dose: 400.0 mg/kg/injection, schedule: Q04DX002 (ip), vehicle: Klucel (hydroxypropylcellulose) (HPC) 97 % of control

COC1=CC(=O)C(C2CC(=O)c3c(O)cc(O)cc3O2)=CC1=O (stereo unspecified)
inactive: dose: 25.0 mg/kg/injection, schedule: Q01DX009 (ip), vehicle: saline with Tween-80 92 % of control | dose: 50.0 mg/kg/injection, schedule: Q01DX009 (ip), vehicle: saline with Tween-80 98 % of control | dose: 100.0 mg/kg/injection, schedule: Q01DX009 (ip), vehicle: saline with Tween-80 103 % of control

COc1ccccc1C1CCCCCCC1OS(=O)(=O)c1ccc(C)cc1 (stereo unspecified)
inactive: dose: 18.75 mg/kg/injection, schedule: Q01DX009 (ip), vehicle: saline 97 % of control | dose: 37.5 mg/kg/injection, schedule: Q01DX009 (ip), vehicle: saline 95 % of control | dose: 75.0 mg/kg/injection, schedule: Q01DX001 (ip), vehicle: acetone 89 % of control | dose: 75.0 mg/kg/injection, schedule: Q01DX001 (ip), vehicle: saline 90 % of control | dose: 75.0 mg/kg/injection, schedule: Q01DX009 (ip), vehicle: saline 90 % of control | dose: 75.0 mg/kg/injection, schedule: Q04DX003 (ip), vehicle: saline 88 % of control | dose: 112.0 mg/kg/injection, schedule: Q01DX009 (ip), vehicle: saline 103 % of control | dose: 150.0 mg/kg/injection, schedule: Q01DX001 (ip), vehicle: saline 93 % of control | dose: 150.0 mg/kg/injection, schedule: Q04DX003 (ip), vehicle: saline 92 % of control | dose: 170.0 mg/kg/injection, schedule: Q01DX009 (ip), vehicle: saline 96 % of control | dose: 255.0 mg/kg/injection, schedule: Q01DX009 (ip), vehicle: saline 100 % of control | dose: 300.0 mg/kg/injection, schedule: Q01DX001 (ip), vehicle: acetone 89 % of control | dose: 300.0 mg/kg/injection, schedule: Q01DX001 (ip), vehicle: saline 92 % of control

CCN(CC)c1ccc(/C=N\N(C)C)cc1
inactive: dose: 50.0 mg/kg/injection, schedule: Q01DX009 (ip), vehicle: Klucel (hydroxypropylcellulose) (HPC) 97 % of control | dose: 100.0 mg/kg/injection, schedule: Q01DX009 (ip), vehicle: Klucel (hydroxypropylcellulose) (HPC) 101 % of control | dose: 200.0 mg/kg/injection, schedule: Q01DX009 (ip), vehicle: Klucel (hydroxypropylcellulose) (HPC) 106 % of control

COC(=O)C1(C(=O)OC)C2CC=C(C)CC21 (stereo unspecified)
inactive: dose: 100.0 mg/kg/injection, schedule: Q01DX009 (ip), vehicle: acetone 100 % of control | dose: 200.0 mg/kg/injection, schedule: Q01DX009 (ip), vehicle: acetone 98 % of control | dose: 400.0 mg/kg/injection, schedule: Q01DX009 (ip), vehicle: acetone 90 % of control

O=C1C(=O)c2cccc([N+](=O)[O-])c2-c2c1cccc2[N+](=O)[O-]
inactive: [1] 102 % of control | [2] 106 % of control | [3] 102 % of control

O=C(CC(=O)C(F)(F)F)c1cccs1.O=C(CC(=O)C(F)(F)F)c1cccs1.O=C(CC(=O)C(F)(F)F)c1cccs1.[Cr]
inactive: dose: 100.0 mg/kg/injection, schedule: Q01DX001 (ip), vehicle: other 91 % of control | dose: 100.0 mg/kg/injection, schedule: Q04DX003 (ip), vehicle: other 97 % of control | dose: 200.0 mg/kg/injection, schedule: Q01DX001 (ip), vehicle: other 94 % of control | dose: 200.0 mg/kg/injection, schedule: Q04DX003 (ip), vehicle: other 103 % of control | dose: 400.0 mg/kg/injection, schedule: Q01DX001 (ip), vehicle: other 96 % of control | dose: 400.0 mg/kg/injection, schedule: Q04DX003 (ip), vehicle: other 94 % of control

CN(C)c1nc2nc[nH]c2c(=S)n1C
inactive: [1] 97 % of control | [2] 97 % of control | [3] 95 % of control
